Experimental data from doi:10.1101/2024.08.25.609621 (bioRxiv, 2024).
“And” between values parts separate entries of the source, which are not always exact repeats. Equal values may be shown once. Read-outs that look alike come from different tables or passages of the source.

What was measured:
[1] = target: SARS-CoV-2 NSP3 macrodomain (Mac1) (Severe acute respiratory syndrome coronavirus 2, UniProt P0DTD1); experiment: biochemical; format: binding
[2] = target: SARS-CoV-2 NSP3 macrodomain (Mac1), P43 crystal form (Severe acute respiratory syndrome coronavirus 2, UniProt P0DTD1); format: binding; conditions: for PanDDA run, TFA/DMSO background map: 1-BDC / PanDDA run, TFA/DMSO background map: Hit: soak concentration 10 mM; for 1-BDC: PanDDA background density correction; for X-ray crystal structure: X-ray crystal structure determined (TRUE); for Total number of conformations: ligand conformations modeled in Mac1 crystal structure; for 2*(1-BDC) (%): occupancy estimate from PanDDA BDC; for Binding site: site of ligand in X-ray crystal structure
[3] = dose-response, read-out: SARS CoV-2 macrodomain HTRF assay: IC50
[4] = dose-response, read-out: SARS CoV-2 macrodomain HTRF assay: Ki
[5] = from SARS CoV-2 macrodomain HTRF assay
[6] = ligand modeling in Mac1 crystal soak
[7] = Single dose, concentration 200 μM, read-out: Average % competition
[8] = preliminary screen, compound at 200 μM, mean of 3-4 technical replicates, read-out: % competition in HTRF assay
[9] = Single dose, concentration 200 μM, read-out: SARS CoV-2 macrodomain HTRF assay: Average % competition
[10] = stereoisomer(s) of ligand modeled in Mac1 crystal structure
[11] = crystal soak 10 mM, P43 crystals
[12] = crystal soak 10 mM, DMSO background map
[13] = SARS CoV-2 macrodomain HTRF assay
[14] = SARS CoV-2 macrodomain HTRF assay, dose-response, read-out: Ki
[15] = SARS CoV-2 macrodomain HTRF assay, dose-response
[16] = crystal soak 10 mM, DMSO background map, event 1
[17] = ligand modeling in Mac1 crystal structure
[18] = stereoisomer(s) modeled in Mac1 crystal structure
[19] = SARS CoV-2 macrodomain HTRF assay, dose-response, read-out: IC50

Row | Compound | Ki [1, 4] | Ligand efficiency (binding enery per heavy atom) [1, 5] | Number of isomers bound [2, 6] | inhibition at 200 µM [1, 8] | PanDDA run, TFA/DMSO background map: 1-BDC ([2]; TFA/DMSO background map) | PanDDA run, TFA/DMSO background map: Hit ([2]; TFA/DMSO background map) | inhibition at 200 µM [1, 9] | further results
1 | CC1(C)C[C@@H](CO)N(c2ncnc3[nH]ccc23)C1.O=C(O)C(F)(F)F [AVI-3704] | 27 µM | 0.35 | 1 | – | – | – | – | IC50 [1, 3]: 29 µM
2 | OCC(Cc1ccoc1)Nc1ncnc2[nH]ccc12 (stereo not shown) [AVI-3705] | – | – | 1 | 64% | 0.14 | TRUE | – | inhibition at 200 µM [1, 7]: 64%
3 | OCC1CC2(CCOCC2)CN1c1ncnc2[nH]ccc12 (stereo not shown) [AVI-3707] | – | – | 1 | 39% | 0.15 | TRUE | 39% | –
4 | OCC1CC2(CCCC2)CN1c1ncnc2[nH]ccc12 (stereo not shown) [AVI-3708] | 25 µM | 0.32 | 1 | – | – | – | – | IC50 [1, 3]: 27 µM
5 | OCC(COCc1ccccc1)Nc1ncnc2[nH]ccc12 (stereo not shown) [AVI-3709] | – | – | 2 | 29% | 0.16 | TRUE | – | inhibition at 200 µM [1, 7]: 29%; Isomers modeled [2, 10]: S,R
6 | O=C(O)C(F)(F)F.OC[C@@H]1CC2(CC2)CN1c1ncnc2[nH]ccc12 [AVI-3710] | – | – | 1 | 57% | 0.23 | TRUE | 57% | Isomers modeled [2, 10]: S,S
7 | OCC(Cc1cccs1)Nc1ncnc2[nH]ccc12 (stereo not shown) [AVI-3711] | – | – | 1 | 63% | 0.16 | TRUE | – | inhibition at 200 µM [1, 7]: 63%
8 | OCC1C2CCC(C2)N1c1ncnc2[nH]ccc12 (stereo not shown) [AVI-3713] | 25 µM | 0.35 | 1 | – | – | – | – | IC50 [1, 3]: 27 µM; Isomers modeled [2, 10]: SSR
9 | OCC(Nc1ncnc2[nH]ccc12)c1ccccc1 (stereo not shown) [AVI-3715] | – | – | 1 | 54% | 0.09 | TRUE | – | inhibition at 200 µM [1, 7]: 54%
10 | OCC1COCCN1c1ncnc2[nH]ccc12 (stereo not shown) [AVI-3717] | – | – | 2 | 62% | – | – | 62% | Isomers modeled [2, 10]: R,S
11 | CC(C)(C)C1CCC(CO)N(c2ncnc3[nH]ccc23)C1 (stereo not shown) [AVI-3719] | – | – | 1 | 36% | – | – | 36% | –
12 | OC[C@@H]1C[C@@H]2CCC[C@@H]2N1c1ncnc2[nH]ccc12 [AVI-3720] | 26 µM | 0.33 | 1 | – | – | – | – | IC50 [1, 3]: 28 µM; Isomers modeled [2, 10]: SSS
13 | CN1CCN(c2ncnc3[nH]ccc23)C(CO)C1 (stereo not shown) [AVI-3721] | – | – | 1 | 11% | – | – | 11% | Isomers modeled [2, 10]: R,R
14 | CC(C)(C)[C@@H]1CCN(c2ncnc3[nH]ccc23)[C@H](CO)C1 [AVI-3722] | – | – | 1 | 22% | – | – | 22% | –
15 | OC[C@H]1CN2CCC[C@H]2CN1c1ncnc2[nH]ccc12 [AVI-3724] | – | – | – | < 10% | – | – | < 10% | Pandda run, overall: Hit [2, 11]: TRUE; Pandda run, overall: Modeling comment [2, 11]: Weak density, not modeled; PanDDA run, DMSO background map: 1-BDC [2, 12]: 0.05; PanDDA run, DMSO background map: Hit [2, 12]: TRUE
16 | CC1(C)CCC(CO)N(c2ncnc3[nH]ccc23)C1 (stereo not shown) [AVI-3726] | – | – | 2 | 76% | – | – | 76% | Isomers modeled [2, 10]: R,R,S

Row | Compound | Ki [1, 4] | Ligand efficiency (binding enery per heavy atom) [1, 5] | Number of isomers bound [2, 6] | inhibition at 200 µM [1, 8] | PanDDA run, TFA/DMSO background map: 1-BDC ([2]; TFA/DMSO background map) | PanDDA run, TFA/DMSO background map: Hit ([2]; TFA/DMSO background map) | inhibition at 200 µM [1, 9] | further results
17 | OCC1CC2(CCCCC2)CN1c1ncnc2[nH]ccc12 (stereo not shown) [AVI-3727] | – | – | 1 | 67% | 0.25 | TRUE | 67% | –
18 | OCC1CC2(CCC2)CN1c1ncnc2[nH]ccc12 (stereo not shown) [AVI-3728] | – | – | 1 | 79% | 0.26 | TRUE | 79% | Isomers modeled [2, 10]: S,S
19 | C[C@@H](O)[C@H](CO)Nc1ncnc2[nH]ccc12.O=C(O)C(F)(F)F [AVI-3730] | – | – | 1 | 63% | 0.12 | TRUE | – | inhibition at 200 µM [1, 7]: 63%
20 | O=C(O)C(F)(F)F.OC1([C@H]2CCCN2c2ncnc3[nH]ccc23)Cc2ccccc2C1 [AVI-3731] | 3.4 µM | 0.31 | 1 | – | 0.14 | TRUE | – | fold more potent compared to open state binders reported previously ([1]; open state of Phe132 loop): 10–50 fold; IC50 ([1]; read-out: HTRF IC50): 3.7 µM
21 | Cc1nn(C)cc1C1CCC(CO)N1c1ncnc2[nH]ccc12 (stereo not shown) [AVI-3733] | – | – | 1 | 44% | – | – | 44% | –
22 | OCCC(CO)Nc1ncnc2[nH]ccc12 (stereo not shown) [AVI-3734] | – | – | 1 | – | – | – | – | Ligand efficiency (binding enery per heavy atom) [1, 13]: 0.37; Ki [1, 14]: 48 µM; IC50 ([1]; read-out: HTRF IC50): 52 µM
23 | Cc1c[nH]c2ncnc(NCC(C)(C)O)c12 [AVI-3758, 2-methyl-1-((5-methyl-7H-pyrrolo[2,3-d]pyrimidin-4-yl)amino)propan-2-ol] | – | – | – | – | – | – | – | Hill slope ([1]; HTRF dose-response fit, Mac1): 1.0; Ligand efficiency (binding enery per heavy atom) [1, 13]: 0.40; Hill slope [1, 15]: 1.0; Ki [1, 14]: 26 µM; IC50 ([1]; read-out: HTRF IC50): 28 µM; Occupancy difference (refined_occupancy - 2*(1-BDC)) [2]: 22; Refined ligand occupancy (%) [2]: 50%; 1-BDC [2]: 0.14; X-ray crystal structure [2]: TRUE; Hit (PanDDA run, overall) [2, 11]: TRUE; Hit (PanDDA run, DMSO background map) [2, 12]: TRUE; 1-BDC (PanDDA run, DMSO background map) [2, 16]: 0.19 and 0.14; Total number of conformations [2]: 2; Number of isomers bound [2, 17]: 1; 2*(1-BDC) (%) [2]: 28%; Binding site [2]: Adenosine; Isomers modeled [2, 18]: achiral,achiral
24 | Cc1c[nH]c2ncnc(NCC3(O)CCCC3)c12 [AVI-3760, 1-(((5-methyl-7H-pyrrolo[2,3-d]pyrimidin-4-yl)amino)methyl)cyclopentan-1-ol] | – | – | – | – | – | – | – | Hill slope ([1]; HTRF dose-response fit, Mac1): 1.1; Ligand efficiency (binding enery per heavy atom) [1, 13]: 0.36; Hill slope [1, 15]: 1.1; IC50 [1, 19]: 19 µM; Ki [1, 14]: 18 µM; Occupancy difference (refined_occupancy - 2*(1-BDC)) [2]: 18; Refined ligand occupancy (%) [2]: 50%; 1-BDC [2]: 0.16; X-ray crystal structure [2]: TRUE; Hit (PanDDA run, overall) [2, 11]: TRUE; Hit (PanDDA run, DMSO background map) [2, 12]: TRUE; 1-BDC (PanDDA run, DMSO background map) [2, 16]: 0.19 and 0.16; Total number of conformations [2]: 2; Number of isomers bound [2, 17]: 1; 2*(1-BDC) (%) [2]: 32%; Binding site [2]: Adenosine; Isomers modeled [2, 18]: achiral,achiral
25 | Cc1c[nH]c2ncnc(NCC3(O)CCCCC3)c12 [AVI-3761, 1-(((5-methyl-7H-pyrrolo[2,3-d]pyrimidin-4-yl)amino)methyl)cyclohexan-1-ol] | – | – | – | – | – | – | – | Ki [1]: 12 µM; IC50 ([1]; HTRF IC50): 13 µM; Isomers modeled [2]: achiral; Number of isomers bound [2]: 1
26 | CC(O)C1CCCN1c1ncnc2[nH]ccc12 (stereo not shown) [AVI-4062] | 51 µM | 0.35 | – | – | – | – | – | fold decrease in affinity compared to AVI-607 ([1]; HTRF): ~ 3 fold; IC50 ([1]; read-out: HTRF IC50): 55 µM; Number of isomers bound [2, 17]: 1
27 | O=C(O)C(F)(F)F.OC[C@H](Cc1ccc(O)cc1)Nc1ncnc2[nH]ccc12 [AVI-4066] | – | – | – | – | – | – | – | Ligand efficiency (binding enery per heavy atom) [1, 13]: 0.21; IC50 [1, 19]: 720 µM; Ki [1, 14]: 670 µM; Hit (PanDDA run, TFA/DMSO background map) ([2]; crystal soak 10 mM, TFA/DMSO background map): TRUE; 1-BDC (PanDDA run, TFA/DMSO background map) ([2]; crystal soak 10 mM, TFA/DMSO background map, event 1): 0.19 and 0.29 and 0.3; Number of isomers bound [2, 17]: 1
28 | CC(C)(O)C1N(c2ncnc3[nH]ccc23)CCC1(C)C (stereo not shown) [AVI-4126] | 93 µM | 0.28 | – | – | – | – | – | IC50 [1, 3]: 100 µM; Number of isomers bound [2, 17]: 2; Isomers modeled [2, 18]: R,S
29 | CC(C)(O)C1C2CCCCC2CN1c1ncnc2[nH]ccc12 (stereo not shown) [AVI-4127] | 120 µM | 0.25 | – | – | – | – | – | IC50 [1, 3]: 130 µM; Number of isomers bound [2, 17]: 2; Isomers modeled [2, 18]: SSR,SRS
30 | CC(C)(O)C1C2CCC2CN1c1ncnc2[nH]ccc12 (stereo not shown) [AVI-4128] | 22 µM | 0.32 | – | – | – | – | – | IC50 ([1]; read-out: HTRF IC50): 24 µM; Number of isomers bound [2, 17]: 1; Isomers modeled [2, 18]: SRR
31 | Cc1c[nH]c2ncnc(NCC3(O)CCOCC3)c12 [AVI-4194, 4-(((5-methyl-7H-pyrrolo[2,3-d]pyrimidin-4-yl)amino)methyl)tetrahydro-2H-pyran-4-ol] | 150 µM | 0.28 | – | – | – | – | – | IC50 [1, 3]: 160 µM; Number of isomers bound [2, 17]: 1; Isomers modeled [2, 18]: achiral
32 | Cc1c[nH]c2ncnc(NCC3(O)CCSCC3)c12 [AVI-4195, 4-(((5-methyl-7H-pyrrolo[2,3-d]pyrimidin-4-yl)amino)methyl)tetrahydro-2H-thiopyran-4-ol] | 48 µM | 0.31 | – | – | – | – | – | IC50 [1, 3]: 52 µM; Number of isomers bound [2, 17]: 1; Isomers modeled [2, 18]: achiral
